SMILES strings stand for the structures. Where two headings read alike, the source gives them in different places.

Assay [1] concerns the target T1, G-actin (rabbit skeletal muscle actin) (Oryctolagus cuniculus, UniProt P68135).
T1 construct: gene ACTA1
The experiment in a line: differential scanning fluorimetry (SYPRO orange) with Kd; also pyrene-actin polymerization inhibition. The class given is binding. (In general: Differential scanning fluorimetry follows unfolding on heating by fluorescence.)

For assay [2], the target named is T1, G-actin (rabbit skeletal muscle actin). The experiment in a line: pyrene-actin polymerization assay, […] (V50 […] vs control […]). It is filed as biochemical.
Assay [3] shares this target. The assay is described as above. The class given is biochemical. This is another data set of the same source.

On to `CC(C)(O)/C=C/C(=O)[C@](C)(O)[C@H]1[C@H](O)C[C@@]2(C)[C@@H]3CC=C4[C@@H](C=C(O)C(=O)C4(C)C)[C@]3(C)C(=O)C[C@]12C` [CuI, Cucurbitacin I], for which the Kd (usually the equilibrium constant for the complex coming apart) in assay [1] was 30 ± 2.5 nM.

On to `C=C1[C@@H](C)[C@H]2[C@H](Cc3ccccc3)NC(=O)[C@]23[C@H](OC(C)=O)/C=C/[C@@](C)(O)C(=O)[C@@H](C)C/C=C/[C@H]3[C@@H]1O` [Cytochalasin D], for which the “V 50” value in assay [2] came to 77.59 ± 7776.

In the case of `C/C1=C\[C@H](C)C[C@H](C)OC(=O)C[C@H](c2ccc(O)cc2)NC(=O)[C@@H](Cc2c(Br)[nH]c3ccccc23)N(C)C(=O)[C@H](C)NC(=O)[C@@H](C)C1` [Jasplakinolide], the “V 50” value in assay [3] turned out to be 54.7 ± 5114.

(Values after publication PMC10867458, “Depolymerization of actin filaments by Cucurbitacin I through binding G‐actin” (Food Science & Nutrition, 2023).)
